# Measurements: patent US20160039914A1 (priority 2013, published 2016)
# Legend:
# [1] = tested on: S. aureus (MRSA strain 38); details: in vivo, iv
# MRSA strain 38 = tested on: MRSA strain 38; set-up: species or system S. aureus; details: in vivo
compound,measurement,setting,value
CN[C@H](CC(C)C)C(=O)N[C@H]1C(=O)N[C@@H](CC(N)=O)C(=O)N[C@H]2C(=O)N[C@H]3C(=O)N[C@H](C(=O)N[C@H](C(=O)O)c4cc(O)cc(O)c4-c4cc3ccc4O)[C@H](O)c3ccc(c(Cl)c3)Oc3cc2cc(c3O[C@@H]2O[C@H](CO)[C@@H](O)[C@H](O)[C@H]2O[C@H]2C[C@](C)(N)[C@H](O)[C@H](C)O2)Oc2ccc(cc2Cl)[C@H]1O [vancomycin],IFN-γ in serum,[1],2.98 ± 1.64
same,IL-1β in serum,[1],3.51 ± 1.08
same,IL-6 in serum,[1],379.72 ± 335.45
same,IL-10 in serum,[1],16.75 ± 6.67
same,IL-12p70 in serum,[1],61.55 ± 23.71
same,KC/GRO in serum,[1],260.69 ± 122.01
same,TNF-α in serum,[1],1.46 ± 0.68
same,mIL-1ra level in abscess fluid,MRSA strain 38,not significantly reduced
same,mIL-6 level in abscess fluid,MRSA strain 38,not significantly reduced
same,neutrophil and eosinophil counts,MRSA strain 38,lower
